Source: patent EP2518139A1, “Use of indirubin derivatives for producing pluripotent stem cells” (Universitätsklinikum Jena, priority 2011, dated 2012)

Columns and labels:
HFF = experiment: iPS-Colony formation and Alkaline phosphatases staining in HFF; assay type: cell-based, human; conditions: E738 (0.5µM) 8 days, Alkaline phosphatases staining after 14 days E738 (1µM)
Procedure: Cell culture: HeLa and Hek293T were cultured in DMEM (PAA) containing 10% FCS (PAA) and 1% PS (PAA). HFF (human foreskin fibroblasts) were cultured in DMEM containing 15% FCS and 1%PS. Mouse embryonic fibroblasts were cultured in DMEM containing 10% NCS (LifeTechnologies) and 1% PS. The cells were maintained under 5% CO2 at 37°C in a humidified atmosphere. The cells were treated with various compounds as indicated in context. The images were taken at indicated time points using a Keyence digital-microskop BZ-800.
iPS-Colony formation and Alkaline phosphatases staining in HFF: 10^5 cells/well HFF at passage 4 were seeded in a 12-well plate in 15% FCS. Next day, the cells were treated with indicated concentrations of E738 without change of medium for indicated times. After the appearance of morphologic transition and stem cell like colony formation, alkaline phosphatase staining was performed using StemTAG Alkaline phosphatase staining kit (Biocat, Germany) according to the manufacturers protocol.

Src = target: T1, Src (Homo sapiens, UniProt P12931); experiment: Kinase profiling assay (ProQinase); assay type: biochemical; conditions: 1µM E738, 1µM ATP, recombinant protein kinase
T1 construct: purchased ProQinase
Procedure: (§1) Kinase Assay: The Kinase profiling assay was performed by ProQinase as previously described (Cheng et al.201 0).
(§2) Because E738 initially was designed as a protein kinase inhibitor, we asked if E738 induced dephoshorylation and degradation are caused by certain protein kinases. Thus we exploited protein kinase profiling containing several Smad-relative protein kinases like CDKs and GSK3ß to overview the inhibitory effect of E738 in vitro. The residual activities of kinases were measured by using recombinant protein kinases and proper substrates after treatment with 1µM E738 in the presence of 1µM ATP as our previously described. […] However the mechanism was still remained to elucidate. Recently, researchers argued that Raf kinase inhibitor may induce the activation of MAPKs in vitro and in vivo leading to the failure of cancer therapy (Hatzivassiliou nature 2010 464 431-436, Heidol cell 2010 140 209-221, Murphy PNAS 2010 107 9 4299-4304). We assumed that the indirubin activated MAPKs might be due to its inhibition against Raf kinase. Furthermore, the Lin et. al. described Stat3 inhibitor could disrupt TGFß signaling (Lin oncogene 200928 961-972). Therefore we included Raf and Stat3-relative protein kinases, like Jak, Kit and Src, in this small screening.

KIT = target: T2, KIT (Homo sapiens, UniProt P10721); experiment: Kinase profiling assay (ProQinase); assay type: biochemical; conditions: 1µM E738, 1µM ATP, recombinant protein kinase
T2 construct: purchased ProQinase
Procedure: as §1, §2

b-Raf = target: T3, b-Raf (Homo sapiens, UniProt P15056); experiment: Kinase profiling assay (ProQinase); assay type: biochemical; conditions: 1µM E738, 1µM ATP, recombinant protein kinase
T3 construct: purchased ProQinase
Procedure: as §1, §2

JAK2 = target: T4, JAK2 (Homo sapiens, UniProt O60674); experiment: Kinase profiling assay (ProQinase); assay type: biochemical; conditions: 1µM E738, 1µM ATP, recombinant protein kinase
T4 construct: purchased ProQinase
Procedure: as §1, §2

Stat3 = experiment: Immunoblot of p-Stat3 in HeLa cells; assay type: cell-based, human; conditions: 1 h, BMP2 (100ng/mL), already from 0.1µM
Procedure: Western blot:: Cell extracts were homogenized in Urea-Lysis buffer (1mM EDTA,0.5% Triton X-100), 5mM NaF, 6M Urea, 1mM Na3VO4, 10µg/mL Pepstatin, 100µM PMSF and 3µg/mL Aprotinin in PBS). Enhanced chemiluminescence (ECL) Western blot analysis was performed. 20-40µg of total protein was resolved on 10% SDS-PAGE gels and immunoblotted with specific antibodies. Primary antibodies were incubated at a 1:1,000 dilution in TBS (pH 7.5) with 0.1% Tween-20 and 5% BSA/nonfat milk with gentle agitation overnight at 4°C. The proper secondary antibodies were incubated in TBS (pH 7.5) with 5% BSA/nonfat milk and 0.1 % Tween-20 at a 1:5,000 dilution for 1 h at room temperature.
To assess the effect of E738 on Wnt and Stat3 pathway in mammalian cellular context, HeLa cells were treated with E738 at increasing concentrations for 1 h. Here E804 was used as reference because of its well-known inhibition of Stat3 and Wnt. The antibodies of p-Stat3 and non-phosphorylation-ß-Catenin (NP-ß-Catenin, Ser33/37/Thr41), which can provide a convenient positive band if GSK3B is inhibited, were recruited to substantiated our in vitro results. […] With the stimulation of FCS, we also observed the similar regulation on Stat3 and MAPKs pathways depicted in Fig. 8.

T3 sequence (P15056 whole entry): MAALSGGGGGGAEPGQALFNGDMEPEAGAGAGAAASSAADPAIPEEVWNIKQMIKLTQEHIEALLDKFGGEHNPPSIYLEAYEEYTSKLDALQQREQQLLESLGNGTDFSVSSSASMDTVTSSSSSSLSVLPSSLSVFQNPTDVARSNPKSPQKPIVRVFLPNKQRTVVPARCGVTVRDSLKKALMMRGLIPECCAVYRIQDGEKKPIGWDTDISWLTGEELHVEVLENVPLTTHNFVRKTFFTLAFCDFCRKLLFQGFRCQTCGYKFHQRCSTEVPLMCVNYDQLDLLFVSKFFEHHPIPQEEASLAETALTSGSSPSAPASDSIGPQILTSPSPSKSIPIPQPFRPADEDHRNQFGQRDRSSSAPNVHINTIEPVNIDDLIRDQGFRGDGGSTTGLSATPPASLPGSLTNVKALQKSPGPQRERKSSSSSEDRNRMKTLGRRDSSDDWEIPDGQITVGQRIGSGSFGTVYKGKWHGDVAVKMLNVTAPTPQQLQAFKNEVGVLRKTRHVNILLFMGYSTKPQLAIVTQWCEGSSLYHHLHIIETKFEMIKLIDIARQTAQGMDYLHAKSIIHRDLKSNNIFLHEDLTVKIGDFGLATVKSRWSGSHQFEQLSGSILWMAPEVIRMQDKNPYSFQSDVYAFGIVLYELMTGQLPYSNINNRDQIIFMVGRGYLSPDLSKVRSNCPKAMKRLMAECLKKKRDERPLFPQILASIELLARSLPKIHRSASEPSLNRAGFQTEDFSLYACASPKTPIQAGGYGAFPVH
T4 sequence (O60674 whole entry): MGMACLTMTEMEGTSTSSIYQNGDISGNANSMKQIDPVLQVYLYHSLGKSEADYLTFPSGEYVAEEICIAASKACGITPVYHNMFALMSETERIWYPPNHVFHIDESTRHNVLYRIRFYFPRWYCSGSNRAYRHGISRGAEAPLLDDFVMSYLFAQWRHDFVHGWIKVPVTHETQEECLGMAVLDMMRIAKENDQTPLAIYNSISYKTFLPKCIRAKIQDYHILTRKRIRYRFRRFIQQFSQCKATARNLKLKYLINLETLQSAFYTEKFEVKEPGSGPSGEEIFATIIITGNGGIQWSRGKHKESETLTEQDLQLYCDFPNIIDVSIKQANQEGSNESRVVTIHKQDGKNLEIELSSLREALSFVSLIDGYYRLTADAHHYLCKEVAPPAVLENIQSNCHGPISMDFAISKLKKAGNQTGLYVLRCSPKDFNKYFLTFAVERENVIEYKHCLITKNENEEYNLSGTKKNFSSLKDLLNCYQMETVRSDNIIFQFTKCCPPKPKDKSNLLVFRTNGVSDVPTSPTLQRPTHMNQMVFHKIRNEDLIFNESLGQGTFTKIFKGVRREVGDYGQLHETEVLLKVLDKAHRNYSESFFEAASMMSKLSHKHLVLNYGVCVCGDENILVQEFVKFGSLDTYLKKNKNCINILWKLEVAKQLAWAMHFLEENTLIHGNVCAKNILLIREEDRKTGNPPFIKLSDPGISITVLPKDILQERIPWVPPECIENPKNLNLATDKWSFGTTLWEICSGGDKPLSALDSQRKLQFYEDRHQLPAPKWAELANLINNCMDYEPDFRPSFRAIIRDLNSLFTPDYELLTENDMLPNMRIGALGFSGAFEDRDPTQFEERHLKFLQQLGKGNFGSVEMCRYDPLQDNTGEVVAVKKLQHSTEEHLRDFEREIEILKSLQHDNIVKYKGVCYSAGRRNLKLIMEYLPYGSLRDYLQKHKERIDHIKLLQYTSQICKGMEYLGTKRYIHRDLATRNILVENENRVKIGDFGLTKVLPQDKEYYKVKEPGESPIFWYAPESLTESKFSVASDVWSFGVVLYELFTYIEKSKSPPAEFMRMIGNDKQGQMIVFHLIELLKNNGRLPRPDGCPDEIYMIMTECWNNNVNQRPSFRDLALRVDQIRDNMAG
T1 sequence (P12931 whole entry): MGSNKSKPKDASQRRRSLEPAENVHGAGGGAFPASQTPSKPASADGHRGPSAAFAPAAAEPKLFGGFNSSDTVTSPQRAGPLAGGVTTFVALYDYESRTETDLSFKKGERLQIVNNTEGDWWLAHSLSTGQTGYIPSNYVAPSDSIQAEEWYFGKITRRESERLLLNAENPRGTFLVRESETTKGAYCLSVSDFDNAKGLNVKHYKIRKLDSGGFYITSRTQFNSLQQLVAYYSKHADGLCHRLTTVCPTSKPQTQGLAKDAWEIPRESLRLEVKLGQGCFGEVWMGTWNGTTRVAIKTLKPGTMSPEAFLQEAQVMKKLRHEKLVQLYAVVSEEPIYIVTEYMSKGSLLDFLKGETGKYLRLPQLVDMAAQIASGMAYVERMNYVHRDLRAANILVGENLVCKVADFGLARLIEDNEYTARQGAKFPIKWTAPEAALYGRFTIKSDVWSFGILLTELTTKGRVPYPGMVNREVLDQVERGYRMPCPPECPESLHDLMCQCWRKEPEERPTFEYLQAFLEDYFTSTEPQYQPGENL
T2 sequence (P10721 26-976): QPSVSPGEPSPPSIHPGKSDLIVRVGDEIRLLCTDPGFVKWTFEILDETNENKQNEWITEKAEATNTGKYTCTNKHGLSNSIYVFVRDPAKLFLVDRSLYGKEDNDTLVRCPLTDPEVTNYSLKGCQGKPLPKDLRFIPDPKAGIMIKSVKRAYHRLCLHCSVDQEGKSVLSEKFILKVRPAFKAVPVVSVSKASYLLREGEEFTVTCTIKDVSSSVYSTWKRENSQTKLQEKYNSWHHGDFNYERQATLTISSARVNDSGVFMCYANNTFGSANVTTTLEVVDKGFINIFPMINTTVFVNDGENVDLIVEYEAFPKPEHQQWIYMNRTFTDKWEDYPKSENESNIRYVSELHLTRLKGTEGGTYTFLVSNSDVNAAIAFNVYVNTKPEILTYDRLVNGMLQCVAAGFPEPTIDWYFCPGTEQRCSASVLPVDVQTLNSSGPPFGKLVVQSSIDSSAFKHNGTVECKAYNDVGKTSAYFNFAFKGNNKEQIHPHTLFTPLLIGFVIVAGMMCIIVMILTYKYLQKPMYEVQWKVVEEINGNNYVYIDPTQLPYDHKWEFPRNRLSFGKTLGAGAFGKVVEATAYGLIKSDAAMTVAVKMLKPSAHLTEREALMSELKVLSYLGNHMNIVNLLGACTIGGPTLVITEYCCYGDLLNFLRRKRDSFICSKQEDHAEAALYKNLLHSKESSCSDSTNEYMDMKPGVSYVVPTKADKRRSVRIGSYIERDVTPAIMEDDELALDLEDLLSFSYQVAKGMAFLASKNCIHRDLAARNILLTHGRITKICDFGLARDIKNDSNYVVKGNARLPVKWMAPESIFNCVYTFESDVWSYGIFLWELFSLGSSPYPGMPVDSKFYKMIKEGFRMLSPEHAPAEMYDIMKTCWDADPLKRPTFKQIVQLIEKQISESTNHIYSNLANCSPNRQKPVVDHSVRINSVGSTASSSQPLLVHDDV

SMILES: COc1ccc2c(c1)C(=C1Nc3ccccc3C1=NOCC(O)CO)C(=O)N2 (stereo not drawn) [E738]
- formation of ESC-like colony (HFF): induces the formation of ESC-like colony from HFF
- inhibition of Src (Src): generally inhibited
- inhibition of KIT (KIT): generally inhibited
- blocked activity of b-Raf (b-Raf): 57%
- inhibition of JAK2 (JAK2): generally inhibited
- phosphorylation of Stat3 (Stat3): repressed phosphorylation of Stat3
